# Measured values: ChEMBL document CHEMBL4342403, “New evolutions in the BACE1 inhibitor field from 2014 to 2018” (Bioorg Med Chem Lett, 2019)
# How the values were obtained:
# Homo sapiens [1] = organism: Homo sapiens; assay: Selectivity ratio of IC50 for human BACE2 to IC50 for human BACE1
# P-glycoprotein (ABCB1) = P-glycoprotein (ABCB1) (Homo sapiens, UniProt P08183); assay: Substrate activity at P-glycoprotein (unknown origin) in MDCK-MDR1 cells assessed as efflux ratio; format: ADME, cell-based
# Beta-secretase 1 [2] = biological target: T1, Beta-secretase 1 (Homo sapiens, UniProt P56817); assay: Inhibition of BACE1 in human H4 cells transfected with APP695 assessed as […] incubated for 18 hrs by ELISA; format: cell-based
# Beta-secretase 1 [3] = biological target: T1, Beta-secretase 1; assay: Inhibition of BACE1 (unknown origin) expressed in CHO-K1 cells using Biotin-GLTNIKTEEISEISYAEVEFR-C[Oregon Green]KK-OH as substrate incubated for 3 hrs by fluorescence polarization
# [4] = biological target: Voltage-gated inwardly rectifying potassium channel KCNH2 (Homo sapiens, UniProt Q12809); assay: Inhibition of human ERG expressed in CHO cells at holding potential of -80 mV by patch clamp method; format: cell-based
# [5] = Dissociation constant, pKa of the compound; format: physicochemical
# Beta-secretase 1 [6] = biological target: T1, Beta-secretase 1; assay: Inhibition of BACE1 (unknown origin)
# Canis familiaris [7] = assay: In vivo inhibition of BACE1 in dog assessed as reduction in amyloidbeta level in CSF at 1 mg/kg, po measured at 48 hrs post dose relative to control; format: functional; conditions: Canis lupus familiaris
# Canis familiaris [8] = assay: In vivo inhibition of BACE1 in dog assessed as reduction in amyloidbeta level in CSF at 1 mg/kg, po measured at 24 hrs post dose relative to control; format: functional; conditions: Canis lupus familiaris
# Beta-secretase 2 [9] = biological target: T2, Beta-secretase 2 (Homo sapiens, UniProt Q9Y5Z0); assay: Inhibition of BACE2 (unknown origin)
# T2 sequence (Q9Y5Z0 whole entry): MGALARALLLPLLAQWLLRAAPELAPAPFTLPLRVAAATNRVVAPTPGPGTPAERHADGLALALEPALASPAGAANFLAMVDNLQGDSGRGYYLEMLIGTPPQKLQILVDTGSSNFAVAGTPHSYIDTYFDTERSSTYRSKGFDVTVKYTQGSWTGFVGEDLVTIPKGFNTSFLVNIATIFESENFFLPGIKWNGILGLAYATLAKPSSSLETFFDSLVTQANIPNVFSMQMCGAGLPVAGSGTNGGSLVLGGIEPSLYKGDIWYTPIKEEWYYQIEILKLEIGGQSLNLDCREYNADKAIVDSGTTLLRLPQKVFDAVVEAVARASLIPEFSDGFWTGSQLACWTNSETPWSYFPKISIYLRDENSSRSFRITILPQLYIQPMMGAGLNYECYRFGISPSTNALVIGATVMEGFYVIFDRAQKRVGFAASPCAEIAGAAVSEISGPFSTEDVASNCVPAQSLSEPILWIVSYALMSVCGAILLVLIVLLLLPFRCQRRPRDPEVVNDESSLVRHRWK
# Beta-secretase 1 [10] = biological target: T1, Beta-secretase 1; assay: Inhibition of BACE1 (unknown origin) by cell-based assay
# Canis familiaris [11] = assay: In vivo inhibition of BACE1 in Beagle dog assessed as reduction in amyloidbeta (1 to 42 residues) at 0.31 mg/kg, po measured at 8 hrs post dose relative to baseline; format: functional; conditions: Canis lupus familiaris
# Canis familiaris [12] = assay: In vivo inhibition of BACE1 in Beagle dog assessed as reduction in amyloidbeta (1 to 42 residues) at 1.25 mg/kg, po measured at 8 hrs post dose relative to baseline; format: functional; conditions: Canis lupus familiaris
# Canis familiaris [13] = assay: In vivo inhibition of BACE1 in Beagle dog assessed as reduction in amyloidbeta (1 to 42 residues) at 0.16 mg/kg, po measured at 8 hrs post dose relative to baseline; format: functional; conditions: Canis lupus familiaris
# Beta-secretase 2 [14] = biological target: T2, Beta-secretase 2; assay: Inhibition of BACE2 (unknown origin) incubated for 450 mins using APP swedish mutant as substrate by FRET assay
# Beta-secretase 1 [15] = biological target: T1, Beta-secretase 1; assay: Inhibition of BACE1 in human SK-N-BE(2) cells expressing human APP695 assessed as reduction in amyloidbeta (1 to 42 residues) level incubated for 18 hrs by sandwich ELISA; format: cell-based
# Beta-secretase 1 [16] = biological target: T1, Beta-secretase 1; assay: Inhibition of BACE1 (unknown origin) incubated for 120 mins using APP swedish mutant as substrate by FRET assay
# Homo sapiens [17] = assay: In vivo inhibition of BACE1 in human assessed as reduction in amyloidbeta40 level in CSF at 150 mg administered once daily for 14 days relative to baseline; format: functional
# Homo sapiens [18] = assay: In vivo inhibition of BACE1 in human assessed as reduction in amyloidbeta40 level in CSF at 50 mg administered once daily for 14 days relative to baseline; format: functional
# Homo sapiens [19] = assay: In vivo inhibition of BACE1 in human assessed as reduction in amyloidbeta40 level in CSF at 15 mg administered once daily for 14 days relative to baseline; format: functional
# Homo sapiens [20] = assay: In vivo inhibition of BACE1 in human assessed as reduction in amyloidbeta40 level in CSF at 200 mg relative to control; format: functional
# Homo sapiens [21] = assay: In vivo inhibition of BACE1 in human assessed as reduction in amyloidbeta40 level in CSF at 50 mg relative to control; format: functional
# Homo sapiens [22] = assay: In vivo inhibition of BACE1 in human assessed as reduction in amyloidbeta40 level in CSF at 100 mg relative to control; format: functional
# Homo sapiens [23] = assay: In vivo inhibition of BACE1 in human assessed as reduction in amyloidbeta40 level in CSF at 25 mg relative to control; format: functional
# Homo sapiens [24] = assay: In vivo inhibition of BACE1 in human assessed as reduction in amyloidbeta(1 to 42 residues) level in CSF at 50 mg, qd administered up to 14 days relative to control; format: functional
# Homo sapiens [25] = assay: In vivo inhibition of BACE1 in human assessed as reduction in amyloidbeta(1 to 42 residues) level in CSF at 275 mg, qd administered up to 14 days relative to control; format: functional
# Homo sapiens [26] = assay: In vivo inhibition of BACE1 in human assessed as reduction in amyloidbeta(1 to 42 residues) level in CSF at 125 mg, qd administered up to 14 days relative to control; format: functional
# Homo sapiens [27] = assay: In vivo inhibition of BACE1 in human assessed as reduction in amyloidbeta40 level in CSF at 85 mg, qd administered for 3 months relative to control; format: functional
# Beta-secretase 2 [28] = biological target: T2, Beta-secretase 2; assay: Inhibition of human BACE2 expressed in HEK293 cells incubated for 16 to 24 hrs by FRET assay; format: cell-based
# Beta-secretase 1 [29] = biological target: T1, Beta-secretase 1; assay: Inhibition of human BACE1 expressed in HEK293 cells incubated for 16 to 24 hrs by FRET assay; format: cell-based
# Beta-secretase 1 [30] = biological target: T1, Beta-secretase 1; assay: Inhibition of BACE1 in human SH-SY5Y cells transfected with APP695 assessed as reduction in amyloidbeta (1 to 40 residues) incubated for 24 hrs by sandwich ELlSA; format: cell-based
# Beta-secretase 1 [31] = biological target: T1, Beta-secretase 1; assay: Inhibition of human BACE1 using biotin-XSEVNLDAEFRHDSGC-Eu as substrate incubated for 3 hrs by fluorescence method
# T1 sequence (P56817 whole entry): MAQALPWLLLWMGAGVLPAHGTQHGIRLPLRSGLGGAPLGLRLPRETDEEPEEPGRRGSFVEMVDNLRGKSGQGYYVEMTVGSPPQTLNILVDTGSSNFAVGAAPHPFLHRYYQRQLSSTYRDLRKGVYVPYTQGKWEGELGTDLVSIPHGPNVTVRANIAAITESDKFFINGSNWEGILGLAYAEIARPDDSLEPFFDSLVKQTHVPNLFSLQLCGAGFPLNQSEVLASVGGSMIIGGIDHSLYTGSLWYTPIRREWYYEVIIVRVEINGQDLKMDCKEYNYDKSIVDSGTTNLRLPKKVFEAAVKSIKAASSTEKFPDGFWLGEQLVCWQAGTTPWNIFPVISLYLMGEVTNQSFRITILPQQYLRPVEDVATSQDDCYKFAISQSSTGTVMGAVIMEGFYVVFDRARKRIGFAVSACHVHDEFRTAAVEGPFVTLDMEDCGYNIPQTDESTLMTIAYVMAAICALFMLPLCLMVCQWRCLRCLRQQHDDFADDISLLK
# P-glycoprotein (ABCB1), sequence (P08183 whole entry): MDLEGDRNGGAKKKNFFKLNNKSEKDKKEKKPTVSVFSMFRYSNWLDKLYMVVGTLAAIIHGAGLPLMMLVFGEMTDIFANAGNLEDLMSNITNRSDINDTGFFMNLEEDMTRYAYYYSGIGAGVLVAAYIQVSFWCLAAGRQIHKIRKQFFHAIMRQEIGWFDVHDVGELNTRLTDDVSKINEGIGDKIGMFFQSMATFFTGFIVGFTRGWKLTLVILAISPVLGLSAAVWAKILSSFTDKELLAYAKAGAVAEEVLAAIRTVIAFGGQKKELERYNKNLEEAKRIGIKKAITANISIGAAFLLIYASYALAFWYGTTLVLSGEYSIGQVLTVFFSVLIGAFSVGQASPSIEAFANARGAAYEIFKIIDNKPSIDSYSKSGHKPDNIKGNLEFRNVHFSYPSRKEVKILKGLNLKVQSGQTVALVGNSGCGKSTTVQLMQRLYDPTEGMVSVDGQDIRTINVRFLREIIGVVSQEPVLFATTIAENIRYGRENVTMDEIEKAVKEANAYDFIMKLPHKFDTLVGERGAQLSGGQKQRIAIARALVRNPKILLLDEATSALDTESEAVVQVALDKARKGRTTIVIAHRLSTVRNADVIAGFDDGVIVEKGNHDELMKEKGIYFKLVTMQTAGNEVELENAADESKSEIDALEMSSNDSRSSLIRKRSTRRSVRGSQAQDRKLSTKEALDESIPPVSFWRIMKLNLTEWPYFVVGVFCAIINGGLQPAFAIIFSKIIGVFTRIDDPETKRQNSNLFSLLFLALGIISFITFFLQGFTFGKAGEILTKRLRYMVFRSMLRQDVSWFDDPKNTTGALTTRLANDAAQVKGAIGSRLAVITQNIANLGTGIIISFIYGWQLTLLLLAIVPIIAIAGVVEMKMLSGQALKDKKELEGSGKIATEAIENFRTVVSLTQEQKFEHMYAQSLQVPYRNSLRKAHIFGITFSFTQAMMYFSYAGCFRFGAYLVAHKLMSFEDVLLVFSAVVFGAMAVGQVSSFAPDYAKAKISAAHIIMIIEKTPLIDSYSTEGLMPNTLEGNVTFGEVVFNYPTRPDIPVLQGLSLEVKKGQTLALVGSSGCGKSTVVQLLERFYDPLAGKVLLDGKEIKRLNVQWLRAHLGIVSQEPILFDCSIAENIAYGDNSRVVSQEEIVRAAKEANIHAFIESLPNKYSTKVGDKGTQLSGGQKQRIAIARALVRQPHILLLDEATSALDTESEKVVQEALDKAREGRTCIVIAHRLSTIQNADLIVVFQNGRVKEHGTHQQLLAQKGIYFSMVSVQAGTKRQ
# Voltage-gated inwardly rectifying potassium channel KCNH2, sequence (Q12809 whole entry): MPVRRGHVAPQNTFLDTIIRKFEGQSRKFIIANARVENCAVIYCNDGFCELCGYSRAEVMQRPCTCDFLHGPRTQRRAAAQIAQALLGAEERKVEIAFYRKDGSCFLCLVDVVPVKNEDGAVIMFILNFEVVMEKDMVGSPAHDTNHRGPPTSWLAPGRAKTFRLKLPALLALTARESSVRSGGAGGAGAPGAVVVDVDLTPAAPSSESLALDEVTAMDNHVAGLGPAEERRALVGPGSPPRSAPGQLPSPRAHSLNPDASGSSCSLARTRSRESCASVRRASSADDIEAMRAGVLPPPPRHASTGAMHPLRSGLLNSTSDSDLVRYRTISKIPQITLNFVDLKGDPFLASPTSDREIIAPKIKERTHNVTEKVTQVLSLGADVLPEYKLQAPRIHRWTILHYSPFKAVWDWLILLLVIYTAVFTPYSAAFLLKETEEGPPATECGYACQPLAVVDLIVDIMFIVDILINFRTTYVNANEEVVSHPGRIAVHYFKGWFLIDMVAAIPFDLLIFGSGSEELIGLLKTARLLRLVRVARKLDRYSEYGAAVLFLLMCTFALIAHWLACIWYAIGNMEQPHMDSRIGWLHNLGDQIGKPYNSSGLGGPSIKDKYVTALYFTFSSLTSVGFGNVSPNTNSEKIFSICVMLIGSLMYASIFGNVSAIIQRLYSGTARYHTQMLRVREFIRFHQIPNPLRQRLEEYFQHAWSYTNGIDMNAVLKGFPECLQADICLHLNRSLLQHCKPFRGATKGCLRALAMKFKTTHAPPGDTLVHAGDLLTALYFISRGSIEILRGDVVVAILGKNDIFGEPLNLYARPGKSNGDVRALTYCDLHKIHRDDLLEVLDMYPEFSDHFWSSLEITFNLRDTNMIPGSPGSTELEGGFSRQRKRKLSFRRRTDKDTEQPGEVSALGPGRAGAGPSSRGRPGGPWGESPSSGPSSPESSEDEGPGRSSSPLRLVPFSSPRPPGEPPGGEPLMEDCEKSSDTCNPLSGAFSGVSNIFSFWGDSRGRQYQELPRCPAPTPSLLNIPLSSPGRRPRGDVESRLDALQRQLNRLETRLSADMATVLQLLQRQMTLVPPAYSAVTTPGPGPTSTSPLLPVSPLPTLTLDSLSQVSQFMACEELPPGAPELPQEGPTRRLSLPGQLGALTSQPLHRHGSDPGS
smiles,measurement,setting,value
CC(F)(F)[C@H]1OC[C@]2(c3cc(NC(=O)c4cnc(-n5cncn5)cn4)ccc3F)N=C(N)SC[C@H]12,Ratio IC50,Homo sapiens [1],> 400
C[C@H]1C[C@H]2CSC(N)=N[C@@]2(c2ncc(NC(=O)c3ccc(OC(F)F)cn3)s2)CO1,efflux ratio,P-glycoprotein (ABCB1),7
same,IC50,Beta-secretase 1 [2],13600 nM
same,IC50,Beta-secretase 1 [3],> 100000 nM
same,IC50,[4],12000 nM
same,pKa,[5],7
NC1=N[C@@]2(c3cc(NC(=O)c4ccc(C(F)(F)F)cn4)ccc3F)CO[C@H](C(F)(F)F)[C@H]2CO1,IC50,Beta-secretase 1 [6],11.9 nM
same,inhibition in vivo at 1 mg/kg,Canis familiaris [7],55%
same,inhibition in vivo at 1 mg/kg,Canis familiaris [8],65%
same,IC50,Beta-secretase 2 [9],602 nM
same,IC50,Beta-secretase 1 [10],1.03 nM
C[C@@]1(S(C)(=O)=O)CC[C@@](CF)(c2cc(NC(=O)c3ccc(OCF)cn3)ccc2F)N=C1N,inhibition in vivo at 0.31 mg/kg,Canis familiaris [11],78%
same,inhibition in vivo at 1.25 mg/kg,Canis familiaris [12],89%
same,inhibition in vivo at 0.16 mg/kg,Canis familiaris [13],71%
same,IC50,Beta-secretase 2 [14],16.6 nM
same,IC50,Beta-secretase 1 [15],1.6 nM
same,IC50,Beta-secretase 1 [16],2.2 nM
CC#Cc1cncc(-c2ccc3c(c2)[C@]2(N=C(C)C(N)=N2)[C@]2(CC[C@@H](OC)CC2)C3)c1,inhibition (INH),Homo sapiens [17],90%
same,inhibition (INH),Homo sapiens [18],76%
same,inhibition (INH),Homo sapiens [19],52%
C[C@H]1OC[C@]2(c3cc(NC(=O)c4cnc(C(F)F)cn4)ccc3F)N=C(N)SC[C@H]12 [ELENBECESTAT],inhibition (INH),Homo sapiens [20],90%
same,inhibition (INH),Homo sapiens [21],71%
same,inhibition (INH),Homo sapiens [22],83%
same,inhibition (INH),Homo sapiens [23],56%
same,IC50,Beta-secretase 1 [10],7 nM
C[C@H]1C[C@H]2CSC(N)=N[C@@]2(c2nc(NC(=O)c3ccc(OC(F)F)cn3)cs2)CO1,inhibition (INH),Homo sapiens [24],69%
same,inhibition (INH),Homo sapiens [25],93%
same,inhibition (INH),Homo sapiens [26],84%
same,pKa,[5],6.9
C[C@@]1(c2nc(NC(=O)c3ncc(C(F)(F)F)cc3Cl)ccc2F)CO[C@@](C)(C(F)(F)F)C(N)=N1,inhibition (INH),Homo sapiens [27],>90%
CC(F)(F)[C@H]1OC[C@]2(c3cc(NC(=O)c4ccc(C(F)(F)F)cn4)ccc3F)N=C(N)SC[C@H]12,IC50,Beta-secretase 2 [28],602 nM
same,IC50,Beta-secretase 1 [29],11.9 nM
same,IC50,Beta-secretase 1 [30],1.03 nM
CC#CC(=O)Nc1ccc(F)c(C2(C)Cc3c(F)cncc3C(N)=N2)c1 (centres undefined),IC50,Beta-secretase 1 [31],54 nM
